Molecules are shown by their SMILES. Square brackets hold non-standard residues; d marks the D form. Peptide text beside a SMILES is read from it. Hyp = O=C(O)[C@@H]1C[C@@H](O)CN1; 2Thi = N[C@@H](Cc1cccs1)C(=O)O

The source of these data is patent publication EP0502987B1, “ACYLATED BRADYKININ ANTAGONISTS AND USES THEREFOR” (TRUSTEES OF BOSTON UNIVERSITY, priority 1989, dated 1994).

The subject of this assay is vasodepressor response of exogenous bradykinin. The experiment in a line: Inhibition of the vasodepressor response to exogenous bradykinin in awake rats. In kind it is in vivo, Wistar rats. The method, then:
An adamantane acetic acid-modified bradykinin analog was synthesized by the solid-phase method described in Example 1. The analog designed by Stewart et al. was also synthesized and used as a control. The control (or model) and test analogs had the following structure: Model: D-Arg-Arg-Pro-Hyp-Gly-Thi-Ser-D-Phe-Thi-Arg Test: [formula] The antagonistic potency of the analogs was assessed by their ability to inhibit the vasodepressor response of exogenous bradykinin in awake rats.
Intact male Wistar rats (Charles River Breeding Laboratories, Wilmington, MA, U.S.A.) weighing 225-250 g were used and maintained on a regular Purina Rat Chow diet and tap water in a room at constant temperature (23 ± 1°C) with 12 hour dark/12 hour light cycles. One day before the experiment, the right carotid and the iliac artery in the rats were catheterized with polyethylene tubing (PE 50) under light ether anesthesia. A "Y" type connection was connected to the carotid artery catheter with two ends: one for injecting bradykinin and the other for infusing the bradykinin analogs. All of the catheters were externalized subcutaneously at the back of the neck. On the day of the experiment, the rats were maintained conscious and unrestrained in plastic cages. Arterial pressure (AP), mean arterial pressure (MAP) and heart rate (HR) were monitored through a Gould-Statham P23 ID pressure transducer (Gould, Cleveland, OH) connected to the iliac catheter and recorded on a Gould 2200S paper chart recorder. A half-hour period was allowed before the actual initiation of the experiment. […]
The effectiveness of each analog was tested by regression analysis of the data obtained in each rat, using a logarithmic transformation of the linear portion of each dose-response curve to calculate the ED₂₂ and ED₉₀ values. The comparison between the two analogs at the same dose was determined using the Students Nonpaired T Test. […]
The pA₂ is the most commonly used parameter to quantitatively express the potency of an antagonist. […]

With `N=C(N)NCCC[C@@H](N)C(=O)N[C@@H](CCCNC(=N)N)C(=O)N1CCC[C@H]1C(=O)N1C[C@H](O)C[C@H]1C(=O)NCC(=O)N[C@@H](Cc1cccs1)C(=O)N[C@@H](CO)C(=O)N[C@H](Cc1ccccc1)C(=O)N[C@@H](Cc1cccs1)C(=O)N[C@@H](CCCNC(=N)N)C(=O)O` [Model Analog, D-Arg-Arg-Pro-Hyp-Gly-Thi-Ser-D-Phe-Thi-Arg] (H-[dR]RP[Hyp]G[2Thi]S[dF][2Thi]R-OH), the ED₂₂ (dose of analog infused (intracarotid) which inhibits 22% of the vasodepressor response to 250 ng of BK, conscious rats pretreated with enalapril 1 mg/kg, 7 rats, mean ± SE) amounted to 1.49 ± 0.29 µg/min. Besides, the ED₉₀ (dose of analog infused (intracarotid) which inhibits 90% of the vasodepressor response to 250 ng of BK, conscious rats pretreated with enalapril 1 mg/kg, 7 rats, mean ± SE) amounted to 142.50 ± 26.44 µg/min. Further, the “pA₂ (anti-vasodepressor potency)” value (negative logarithm of ED value (ED₂₂) divided by estimated volume of distribution (67ml/kg)) is 7.17±0.11.
